The test system of one assay is Hep3B cells. Briefly: Cytotoxic or cytostatic activity on Hep3B cells. Format: cell-based. As to conditions: Homo sapiens, Incubation time 72 hours, concentration range 40 pM to 500 μM. Here is the method: (§1) The cytotoxic or cytostatic activity of methotrexate, the linker-modified methotrexate, MTX-(EG)3-NH2 and of MTX-(EG)3-NH2-loaded gold nanoparticles (GNPs) ([MTX-(EG)3-NHC(O)-(EG)8][alpha-Gall][COOH-(EG)8]@Au) was assessed by treatment of Hep3B and U87MG cells. Incubation time was 72 hours and the concentration range was 40 pM to 500 μM. The results are expressed as IC50 and are as follows: […]

A further assay relates to U87MG cells. Briefly: Cytotoxic or cytostatic activity on U87MG cells. Format: cell-based. As to conditions: Homo sapiens, U-87 MG; Incubation time 72 hours, concentration range 40 pM to 500 μM. How it is done:
as §1

On to `CN(Cc1cnc2nc(N)nc(N)c2n1)c1ccc(C(=O)N[C@@H](CCC(=O)O)C(=O)O)cc1` [MTX, Methotrexate], for which the IC50 in the assay with Hep3B cells and with U87MG cells was 0.001 to 1 µM in each case.

Turning to `CN(Cc1cnc2nc(N)nc(N)c2n1)c1ccc(C(=O)NC(CCC(=O)NCCCOCCOCCOCCCN)C(=O)O)cc1` (stereo not shown) [MTX-(EG)3-NH2, 4-[(3-{2-[2-(3-aminopropoxy)ethoxy]ethoxy}propyl)carbamoyl]-2-[(4-{[(2,4-diaminopteridin-6-yl)methyl](methyl)amino}phenyl)formamido]butanoic acid], the IC50 in the assay on Hep3B cells was 0.001 to 1 µM; with U87MG cells, 1 to 1000 µM.

These data come from US20220241429A1, “Antifolate-Carrying Nanoparticles and Their Use in Medicine” (priority 2018, published 2022).
